Publication PMC2195584 (The Journal of Experimental Medicine, 1999)

Experiments:
[1] = test system: c-fos promoter in Jurkat cells; assay: c-fos luciferase reporter, Jurkat cells; type: cell-based; conditions: presence and absence of CD28 antibodies, vs wild-type mCD28
[2] = test system: Lymph node T cells from CD28-deficient mice; assay: Proliferation of retrovirally reconstituted T cells from CD28-deficient mice; type: cell-based, mouse; conditions: single stimulus, anti-CD3 or PMA alone; 36-h culture; quadruplicate
c-Src = conditions: coexpression in 293 cells; cited from earlier work

**Q.** With “mutated form of mCD28: CD28 with alanines substituted for prolines 187 and 190” as the molecule, how does the “induction of c-fos promoter (in words)” value [1] read?
**A.** The value was “significantly impaired in its ability to induce the c-fos promoter”.

**Q.** With `CCCCCCCCCCCCCC(=O)O[C@@H]1[C@@H](C)[C@@]2(O)[C@@H](C=C(CO)C[C@]3(O)C(=O)C(C)=C[C@@H]23)[C@@H]2C(C)(C)[C@]12OC(C)=O` [PMA] as the molecule, how does the “proliferation ([3H]thymidine), control retrovirus” value [2] read?
**A.** Its value is “proliferated weakly”.

B1: SIN: SH3 binding protein, SIN (protein, UniProt Q64355 1-560, looked up)
Embryonal Fyn-associated …: MAIATSAQLARALYDNTAESPQELSFRRGDVLRVLQREGAGGLDGWCLCSLHGQQGIVPANRVKLLPAGPAPKPSLCPASPTQPGSSCPTPERGCEEQEVYVIPPPARPCSASGLPARSCSPSSDSIYKVPRGNGMQLTASRDVAEVYDVPPNILRAPSSCPYDSPASFSCPVAPVVPQPPREDEAPYDVPLALKPPAELERDPEWEGGREPGPPLYAAPSNLKRASALLNLYEAPEELLANGESRDADEGIYDVPLLGPEPPSPEPPVASSSTDLDTVAQLPTRSSPPQHRPRLPSTESLSRRPLPALPVSEAPAPSPAPSPAPGRKGSIQDRPLPPPPPCLPGYGGLKPEGDPECREVANDPAGPHNEYEGIPMAEEYDYVHLKGVDTAQGSRPLDKAFPVDPELLERGLAERKEALSPEEPLVLSTGDLQLLHFYAGQCQSHYSALQAAVAALVASTQANQPPCLFVPHGKRVVVAAHRLVFVGDTLGRLAASAALRAQVGAAGTMLAQTLRATVLAVKGAALGYPSDTAVQEMARCVAELAGQALRFTTLLDGLLP
**Q.** Which “c-Src kinase activity induction” value (c-Src) does the source give for B1 here?
**A.** The value was “can be induced”.
